From patent US20250288681A1, “SOLID COMPOSITIONS COMPRISING A GLUCOKINASE ACTIVATOR AND METHODS OF MAKING AND USING THE SAME” (vTv Therapeutics LLC, priority 2013, published 2025) come the findings set out here.

A short description of this data set: stability of solid form (statement only). The format is physicochemical. The settings on record: qualitative statement, no data.

Regarding `CCCO[C@H]1CC[C@H](N(C(=O)Nc2ncc(SCC(=O)O)s2)C2CCCCC2)CC1` [UD1-FA, {2-[3-cyclohexyl-3-(trans-4-propoxy-cyclohexyl)-ureido]-thiazol-5-ylsulfanyl}-acetic acid], the stability entry is “greater stability relative to some of its pharmaceutically acceptable salts”.
Under `CCCO[C@H]1CC[C@H](N(C(=O)Nc2ncc(SCC(=O)O)s2)C2CCCCC2)CC1` [Form A, {2-[3-cyclohexyl-3-(trans-4-propoxy-cyclohexyl)-ureido]-thiazol-5-ylsulfanyl}-acetic acid] stands “particularly stable”.
